We go through 38 compounds from ChEMBL document CHEMBL5625183, “Discovery of a novel dual-target inhibitor of CDK12 and PARP1 that induces synthetic lethality for treatment of triple-negative breast cancer” (Eur J Med Chem, 2023).

The test system of test [1] is MDA-MB-436. The test is described as follows: Antiproliferative activity against human MDA-MB-436 cells assessed as inhibition of cell growth incubated for 24 hrs by MTT assay. In kind it is functional, cell-based. The note with it: Homo sapiens, MDA-MB-436, 24 h.
Test [2] has as its system MDA-MB-468. The test is described as follows: Antiproliferative activity against human MDA-MB-468 cells assessed as inhibition of cell growth incubated for 24 hrs by MTT assay. It counts as functional, cell-based. The conditions noted are these: MDA-MB-468, 24 h. Background: Tetrazolium dyes change colour on reduction, which living cells bring about.
Test [3] deals with Cyclin-dependent kinase 12 (Homo sapiens, UniProt Q9NYV4). Briefly: Inhibition of CDK12 (unknown origin) at 1 uM in presence of ATP by kinase-glo plus luminescent assay relative to control.
Test [4] has as its system MDA-MB-231. The test is described as follows: Antiproliferative activity against human MDA-MB-231 cells assessed as inhibition of cell growth incubated for 24 hrs by MTT assay. The note with it: MDA-MB-231, 24 h. It counts as functional, cell-based.

Chain of Cyclin-dependent kinase 12 (Q9NYV4 whole entry, looked up): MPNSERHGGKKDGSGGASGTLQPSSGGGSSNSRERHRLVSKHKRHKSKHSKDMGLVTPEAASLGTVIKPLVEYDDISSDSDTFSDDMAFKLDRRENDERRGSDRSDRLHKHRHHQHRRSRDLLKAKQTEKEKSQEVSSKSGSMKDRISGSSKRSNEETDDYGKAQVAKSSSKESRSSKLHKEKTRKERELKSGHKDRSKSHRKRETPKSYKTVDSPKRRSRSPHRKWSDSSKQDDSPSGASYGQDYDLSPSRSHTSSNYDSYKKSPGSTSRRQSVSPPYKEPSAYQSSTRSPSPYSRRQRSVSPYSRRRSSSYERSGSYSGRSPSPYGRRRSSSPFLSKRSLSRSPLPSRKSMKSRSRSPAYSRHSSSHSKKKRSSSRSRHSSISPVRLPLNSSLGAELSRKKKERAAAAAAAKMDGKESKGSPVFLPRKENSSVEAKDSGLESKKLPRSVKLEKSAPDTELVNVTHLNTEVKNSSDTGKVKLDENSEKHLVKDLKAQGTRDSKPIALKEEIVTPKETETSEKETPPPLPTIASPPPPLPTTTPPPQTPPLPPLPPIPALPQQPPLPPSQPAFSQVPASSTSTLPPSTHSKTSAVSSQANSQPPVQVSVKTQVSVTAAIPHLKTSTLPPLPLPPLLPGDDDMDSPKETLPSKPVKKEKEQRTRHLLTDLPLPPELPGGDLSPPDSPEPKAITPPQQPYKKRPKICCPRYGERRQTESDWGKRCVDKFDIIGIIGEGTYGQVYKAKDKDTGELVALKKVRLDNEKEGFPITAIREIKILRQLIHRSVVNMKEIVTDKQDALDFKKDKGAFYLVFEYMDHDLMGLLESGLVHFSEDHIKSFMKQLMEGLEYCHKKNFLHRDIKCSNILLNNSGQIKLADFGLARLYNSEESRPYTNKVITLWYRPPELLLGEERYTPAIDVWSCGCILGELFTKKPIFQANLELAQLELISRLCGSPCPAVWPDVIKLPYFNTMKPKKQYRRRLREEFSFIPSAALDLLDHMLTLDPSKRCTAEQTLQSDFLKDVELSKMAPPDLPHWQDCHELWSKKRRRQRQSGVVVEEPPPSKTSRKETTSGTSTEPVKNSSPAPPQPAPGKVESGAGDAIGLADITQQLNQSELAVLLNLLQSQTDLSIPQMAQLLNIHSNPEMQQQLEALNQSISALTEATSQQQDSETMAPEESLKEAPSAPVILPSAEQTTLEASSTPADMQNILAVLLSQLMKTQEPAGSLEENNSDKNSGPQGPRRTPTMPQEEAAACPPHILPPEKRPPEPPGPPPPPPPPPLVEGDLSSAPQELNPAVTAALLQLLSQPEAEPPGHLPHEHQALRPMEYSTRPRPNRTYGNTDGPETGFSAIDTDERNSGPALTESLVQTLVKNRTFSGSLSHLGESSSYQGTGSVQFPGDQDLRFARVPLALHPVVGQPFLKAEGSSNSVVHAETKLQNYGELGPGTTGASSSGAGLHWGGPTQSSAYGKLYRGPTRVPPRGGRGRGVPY

Regarding `NC(=O)c1cccc2[nH]c(NC(=O)c3ccc(C(=O)N4CCC(Nc5nccc(C(F)(F)F)n5)CC4)cc3)nc12`, the IC50 in test [1], in test [2] and in test [4] was over 30 µM throughout. Also, in test [3], the inhibition was 16.8%.
With `NC(=O)c1cccc2[nH]c(NC(=O)c3ccc(C(=O)N4CCN(c5ncc(I)cn5)CC4)cc3)nc12`, the 50% inhibitory concentration (IC50) in test [1] was 22.9 µM; in test [2], 26.3 µM; in test [4], 25.8 µM. Besides, the inhibition in test [3] stood at 45.2%.
The corresponding values for `NC(=O)c1cccc2[nH]c(NC(=O)c3ccc(C(=O)N4CCN(c5ccc(C(F)(F)F)cn5)CC4)cc3)nc12` are 25.7 µM, 27.3 µM, 26.8 µM and 39.8%.
As to `Cc1cnc(NC2CCN(C(=O)c3ccc(C(=O)Nc4nc5c(C(N)=O)cccc5[nH]4)cc3)CC2)nc1`, the results for the IC50 in test [1], in test [2] and in test [4] were 23 µM, 27.6 µM and 25.5 µM, respectively. The inhibition in test [3] turned out to be 35.6%.
Consider `NC(=O)c1cccc2[nH]c(NC(=O)c3ccc(C(=O)N4CCN(c5ncc(C(F)(F)F)cn5)CC4)cc3)nc12`, for which the IC50 was 23.9 µM in test [1], 24.2 µM in test [2] and 24.1 µM in test [4]. Besides, the inhibition in test [3] came to 43%.
Take `NC(=O)c1cccc2[nH]c(NC(=O)c3ccc(C(=O)N4CCC(Nc5ccc(Br)cn5)CC4)cc3)nc12`: the IC50 in test [1], in test [2] and in test [4] was over 30 µM throughout. Further, in test [3], the inhibition was found to be 25.9%.
Regarding `NC(=O)c1cccc2[nH]c(NC(=O)c3ccc(CN4CCC(Nc5ncc(Cl)cn5)CC4)cc3)nc12`, the IC50 was 25.8 µM in test [1], over 30 µM in test [2] and 27 µM in test [4]. Moreover, the inhibition in test [3] turned out to be 43.1%.
Taken in the same sequence, the figures for `NC(=O)c1cccc2[nH]c(NC(=O)c3ccc(C(=O)N4CCC(Nc5ccc(C(F)(F)F)cn5)CC4)cc3)nc12` were over 30 µM, over 30 µM, over 30 µM and 26.7%.
As for `NC(=O)c1cccc2[nH]c(NC(=O)c3cccc(C(=O)N4CCN(c5ncc(F)cn5)CC4)c3)nc12`, the IC50 in test [1], in test [2] and in test [4] was over 30 µM each time. In addition, in test [3], the inhibition amounted to 31.6%.
Turning to `NC(=O)c1cccc2[nH]c(NC(=O)c3cccc(C(=O)N4CCN(c5ncc(I)cn5)CC4)c3)nc12`, the IC50 in test [1] is 20.9 µM; in test [2] it was 21.8 µM; in test [4] it was 20.1 µM. Besides, the inhibition in test [3] worked out at 49.6%.
Taken in the same sequence, the figures for `N#Cc1cnc(NC2CCN(C(=O)c3ccc(C(=O)Nc4nc5c(C(N)=O)cccc5[nH]4)cc3)CC2)nc1` were over 30 µM, over 30 µM, over 30 µM and 27.5%.
As to `NC(=O)c1cccc2[nH]c(NC(=O)c3ccc(CN4CCC(Nc5ncc(I)cn5)CC4)cc3)nc12`, the IC50 is 28.9 µM in test [1], 27.7 µM in test [2] and over 30 µM in test [4]. Further, the inhibition in test [3] came to 40.8%.
For `NC(=O)c1cccc2[nH]c(NC(=O)c3ccc(C(=O)N4CCN(c5ncc(F)cn5)CC4)cc3)nc12`, the IC50 in test [1], in test [2] and in test [4] was over 30 µM each time. Besides, the inhibition in test [3] turned out to be 19.8%.
With `NC(=O)c1cccc2[nH]c(NC(=O)c3ccc(S(=O)(=O)N4CCC(Nc5ncc(Br)cn5)CC4)cc3)nc12`, the concentration for half-maximal inhibition (IC50) was over 30 µM in test [1], 24.6 µM in test [2] and 26.6 µM in test [4]. In test [3], the inhibition was determined as 77.6%.
The corresponding values for `NC(=O)c1cccc2[nH]c(NC(=O)c3cccc(C(=O)N4CCN(c5ncc(Cl)cn5)CC4)c3)nc12` are over 30 µM, 24.1 µM, 25.4 µM and 44.1%.
For `NC(=O)c1cccc2[nH]c(NC(=O)c3cccc(C(=O)N4CCC(Nc5ncccn5)CC4)c3)nc12`, the IC50 in test [1], in test [2] and in test [4] was over 30 µM throughout. Also, the inhibition in test [3] amounted to 25%.
Regarding `NC(=O)c1cccc2[nH]c(NC(=O)c3ccc(C(=O)N4CCC(Nc5ncc(I)cn5)CC4)cc3)nc12`, the IC50 in test [1] was 16.5 µM; in test [2] it was 18.5 µM; in test [4], 19.3 µM. The inhibition in test [3] was 61.7%.
`NC(=O)c1cccc2[nH]c(NC(=O)c3ccc(C(=O)N4CCC(Nc5ncc(Br)cn5)CC4)cc3)nc12`: the IC50 is 17.2 µM in test [1], 21.3 µM in test [2] and 19.5 µM in test [4]. The inhibition in test [3] came out at 55.4%.
Take `COc1cnc(NC2CCN(C(=O)c3ccc(C(=O)Nc4nc5c(C(N)=O)cccc5[nH]4)cc3)CC2)nc1`: the half-maximal inhibitory concentration (IC50) in test [1] was determined as 25.6 µM; in test [2] it was 28.9 µM; in test [4], 27.4 µM. For the same compound, the inhibition in test [3] was 31.5%.
On to `NC(=O)c1cccc2[nH]c(NC(=O)c3cccc(C(=O)N4CCC(Nc5ccc(C(F)(F)F)cn5)CC4)c3)nc12`, for which the IC50 in test [1], in test [2] and in test [4] was over 30 µM in each case. Also, the inhibition in test [3] was 19.8%.
Regarding `NC(=O)c1cccc2[nH]c(NC(=O)c3ccc(C(=O)N4CCN(c5ncc(Cl)cn5)CC4)cc3)nc12`, the IC50 in test [1] amounted to 27.6 µM; in test [2], 27.3 µM; in test [4], 28.2 µM. The inhibition in test [3] is 37.4%.
`NC(=O)c1cccc2[nH]c(NC(=O)c3ccc(C(=O)N4CCC(Nc5ncc([N+](=O)[O-])cn5)CC4)cc3)nc12`: the IC50 in test [1], in test [2] and in test [4] was over 30 µM in each case. Besides, the inhibition in test [3] is 24.1%.
For the compound `NC(=O)c1cccc2[nH]c(NC(=O)c3ccc(C(=O)N4CCN(c5ncc(Br)cn5)CC4)cc3)nc12`, the IC50 is 23.6 µM in test [1], 25.1 µM in test [2] and 24.2 µM in test [4]. Further, the inhibition in test [3] was determined as 41.6%.
For `N#Cc1cnc(N2CCN(C(=O)c3cccc(C(=O)Nc4nc5c(C(N)=O)cccc5[nH]4)c3)CC2)nc1`, the IC50 in test [1], in test [2] and in test [4] was over 30 µM throughout. Moreover, the inhibition in test [3] was 32.6%.
On to `N#Cc1cnc(NC2CCN(C(=O)c3cccc(C(=O)Nc4nc5c(C(N)=O)cccc5[nH]4)c3)CC2)nc1`, for which the IC50 in test [1], in test [2] and in test [4] was over 30 µM each time. For the same compound, the inhibition in test [3] amounted to 21.7%.
In the case of `NC(=O)c1cccc2[nH]c(NC(=O)c3ccc(C(=O)N4CCC(Nc5ncc(F)cn5)CC4)cc3)nc12`, the IC50 in test [1] stood at 24.4 µM; in test [2], 26.4 µM; in test [4] it was 28.7 µM. In test [3], the inhibition was 38.8%.
Consider `NC(=O)c1cccc2[nH]c(NC(=O)c3ccc(C(=O)N4CCC(Nc5ncc(Cl)cn5)CC4)cc3)nc12`, for which the IC50 in test [1] was found to be 20.8 µM; in test [2] it was 23.5 µM; in test [4], 24.9 µM. The inhibition in test [3] worked out at 50.7%.
In the case of `NC(=O)c1cccc2[nH]c(NC(=O)c3cccc(C(=O)N4CCC(Nc5ccc(Br)cn5)CC4)c3)nc12`, the IC50 in test [1], in test [2] and in test [4] was over 30 µM throughout. Besides, in test [3], the inhibition came to 25.6%.
Consider `CCc1cnc(NC2CCN(C(=O)c3ccc(C(=O)Nc4nc5c(C(N)=O)cccc5[nH]4)cc3)CC2)nc1`, for which the figures for the IC50 in test [1], in test [2] and in test [4] were 22.3 µM, 24.3 µM and 24.5 µM, respectively. For the same compound, in test [3], the inhibition was 44.1%.
On to `NC(=O)c1cccc2[nH]c(NC(=O)c3ccc(C(=O)N4CCC(Nc5ncc(C(F)(F)F)cn5)CC4)cc3)nc12`, for which the IC50 in test [1] amounted to 23.2 µM; in test [2], 25.2 µM; in test [4], 22.8 µM. For the same compound, the inhibition in test [3] was determined as 54.6%.
As for `NC(=O)c1cccc2[nH]c(NC(=O)c3ccc(C(=O)N4CCC(Nc5ncccn5)CC4)cc3)nc12`, the IC50 in test [1] was determined as 25 µM; in test [2], 28.7 µM; in test [4], 30 µM. In test [3], the inhibition was 32.4%.
For the compound `NC(=O)c1cccc2[nH]c(NC(=O)c3ccc(CN4CCC(Nc5ncc(C(F)(F)F)cn5)CC4)cc3)nc12`, the IC50 was over 30 µM in test [1], 27.3 µM in test [2] and 26.9 µM in test [4]. For the same compound, the inhibition in test [3] was determined as 34%.
For the compound `N#Cc1ccc(NC2CCN(C(=O)c3ccc(C(=O)Nc4nc5c(C(N)=O)cccc5[nH]4)cc3)CC2)nc1`, the IC50 in test [1], in test [2] and in test [4] was over 30 µM in each case. Moreover, the inhibition in test [3] stood at 13.3%.
`NC(=O)c1cccc2[nH]c(NC(=O)c3cccc(C(=O)N4CCN(c5ccc(C(F)(F)F)cn5)CC4)c3)nc12`: the IC50 amounted to 24.6 µM in test [1], 27.5 µM in test [2] and 25.4 µM in test [4]. For the same compound, the inhibition in test [3] is 46.4%.
The corresponding values for `NC(=O)c1cccc2[nH]c(NC(=O)c3ccc(S(=O)(=O)N4CCC(Nc5ncc(C(F)(F)F)cn5)CC4)cc3)nc12` are 27.1 µM, 25.3 µM, 26.7 µM and 69.9%.
Turning to `NC(=O)c1cccc2[nH]c(NC(=O)c3cccc(C(=O)N4CCN(c5ncc(Br)cn5)CC4)c3)nc12`, the IC50 stood at 22.1 µM in test [1], 23.7 µM in test [2] and 24.5 µM in test [4]. Further, the inhibition in test [3] is 46.2%.
For `COc1cnc(NC2CCN(C(=O)c3cccc(C(=O)Nc4nc5c(C(N)=O)cccc5[nH]4)c3)CC2)nc1`, the IC50 in test [1] is 22.7 µM; in test [2] it was 27.9 µM; in test [4] it was 25.2 µM. In addition, in test [3], the inhibition turned out to be 36.4%.
The corresponding values for `N#Cc1cnc(N2CCN(C(=O)c3ccc(C(=O)Nc4nc5c(C(N)=O)cccc5[nH]4)cc3)CC2)nc1` are over 30 µM, over 30 µM, over 30 µM and 28.5%.

Broadly, the IC50 is the concentration at which inhibition is half-maximal. The inhibition is the change of the read-out against control, counted positive when it falls.
